# From PMC7144209, “Design, synthesis and anticancer activity of naphthoquinone derivatives” (Journal of Enzyme Inhibition and Medicinal Chemistry, 2020)
# Key:
# [1] = Metabolic stability assay in human liver microsomes; type: in vitro ADME
# Procedure: To initially evaluate the stability of compound 12, we then tested the liver microsome stability of this compound. The Mean % Parent Remaining of compound 12 in metabolic stability test were 100, 95, 85, 80, and 70 at 0, 15, 30, 45, and 60 min, respectively.
# SGC-7901 cells = assay: Annexin V-FITC/PI apoptosis assay (flow cytometry); type: cell-based, human; conditions: 48 h; for total apoptosis: control 4.34%
# Procedure: After the indicated treatments for 48 h, cells were collected, washed three times with cold PBS, centrifuged and resuspended with 400 μL AnnexinV binding buffer per tube. Then the cells were stained with 5μLAnnexinV-FITC and incubated in the dark for 10 min on ice. Finally, 10 μL PI staining solution was added, and cells were detected by the flow cytometry after incubated in the dark for 5 min. Flowjo 7.6.1 software was used to analyse the cell apoptosis.
# Apoptosis is one of the main methods that result in cell death. In this study, Annexin V-FITC/PI kit was used to evaluate the cell apoptosis. […] To further, investigate whether the cell apoptosis induced by title compound, Western blot analysis was used to measure the effect of the compound on apoptosis of SGC-7901 cell. As reported that apoptosis pathway could be regulated by the activation of PARP and Bcl2 family proteins[40]^,[41].
structure (smiles),measurement,setting,value
"CC(C)=CCC(OC(=O)CCC(=O)Nc1ccc(Oc2ccccc2)cc1)C1=CC(=O)c2c(O)ccc(O)c2C1=O (centres unmarked) [Compound 12, 1-(5,8-dihydroxy-1,4-dioxo-1,4-dihydronaphthalen-2-yl)-4-methylpent-3-en-1-yl-4-oxo-4-((4-phenoxyphenyl)amino)butanoate]",Mean % Parent Remaining,[1]; 0 min,100%
same,Mean % Parent Remaining,[1]; 15 min,95%
same,Mean % Parent Remaining,[1]; 30 min,85%
same,Mean % Parent Remaining,[1]; 45 min,80%
same,Mean % Parent Remaining,[1]; 60 min,70%
same,microsomal CLint,"[1]; human, read-out: calculated clearance rate",> 110 µL/min/mg
same,half-life,"[1]; human, read-out: half-life (t1/2)",> 60 min
same,total apoptosis,"SGC-7901 cells; SGC-7901, 1 μM",6.45%
same,total apoptosis,"SGC-7901 cells; SGC-7901, 2 μM",9.72%
same,total apoptosis,"SGC-7901 cells; SGC-7901, 4 μM",19.9%
same,apoptosis rate in the presence of 3-MA compared with compound 12 alone,"SGC-7901 cells; compound 12 4 μM, 3-MA 500 μM",decreased
